From US20120270819A1, “USE OF COMPOUNDS WITH SGLT-1/SGLT-2 INHIBITOR ACTIVITY FOR PRODUCING MEDICAMENTS FOR TREATMENT OF BONE DISEASE” (SANOFI, priority 2009, published 2012)

Test system: female Sprague-Dawley mature and young adult rats
Assay: Ex vivo peripheral quantitative computed tomography (pQCT) of right femur (metaphysis, diaphysis, length)
Format: in vivo, rat
Settings: Young Adults; for pQCT femur (diaphysis) CSMI / pQCT femur (diaphysis) Cortical Area / pQCT femur (diaphysis) Cortical BMC / pQCT femur (diaphysis) Cortical BMD / pQCT femur (diaphysis) Cortical Thickness / pQCT femur (diaphysis) Endosteal Circumference / pQCT femur (diaphysis) Periosteal Circumference / pQCT femur (diaphysis) Total Area / pQCT femur (diaphysis) Total BMC / pQCT femur (diaphysis) Total BMD / pQCT femur Length / pQCT femur metaphysis C/SC (Cortical/Subcortical) BMC / pQCT femur metaphysis C/SC (Cortical/Subcortical) BMD / pQCT femur metaphysis Total Area / pQCT femur metaphysis Total BMC / pQCT femur metaphysis Total BMD / pQCT femur metaphysis Trabecular BMC / pQCT femur metaphysis Trabecular BMD: mean
Protocol: The following were evaluated: clinical signs (at least weekly), body weight (weekly), food consumption (weekly), hormones (Days 13 and 27), serum and urinary biochemical markers of bone turnover (Days 13 and 27), serum chemistry (at necropsy), bone densitometry by dual energy X-ray absorptiometry (DXA) and peripheral quantitative computed tomography (pQCT) (Week 2 and 4, as well as ex vivo), macroscopic observations at necropsy, organ weights, histopathology, biomechanical strength testing and femoral length measurements.
3.2 Ex Vivo Peripheral Quantitative Computed Tomography (pQCT)
Peripheral QCT scans were performed ex vivo using an XCT Research SA or SA+ bone scanner with software version 5.50D. Scans were obtained for the right femur, L3 and L4 lumbar vertebra for all animals euthanized at the end of the treatment period as well as two found dead animals. These two animals were scanned twice due to technical oversight, however only the first scans obtained were reported and the second scans were kept with the study file, this had no impact on the study as both scans were considered equivalent.
For the femurs, the scanned site was at the expected 3-point bending fracture site (diaphysis). This site was analyzed using Cortmode 2 for cortical bone measurements only (Table 5). An additional slice was obtained in the metaphysis. The metaphysis scan was not performed for the femur of three animals due to condyles detachment from the femur during trimming.
The femoral length was measured as part of the ex vivo pQCT scanning procedures and was reported for the right femur of all animals with the exception of 3 animas due to damaged femoral condyles.
All analyses were performed using the LOOP option of the analysis software. All other data generated as a result of the LOOP option were retained with the raw data but not reported. The most appropriate analysis mode for the femur and the lumbar vertebrae was used and documented in the raw data and the analysis details are presented in Table 6. All scan analysis data was retained and re-analyses documented.

SMILES: COc1ccc(Cc2c(OC3OC(CO)C(F)C(O)C3O)n[nH]c2C(F)(F)F)cc1 (stereo not drawn) [Example 5 of formula II]
- pQCT femur (diaphysis) CSMI, percent difference from Vehicle Control (10 mg/kg/day): −1.3%
- pQCT femur (diaphysis) Cortical Area, percent difference from Vehicle Control (10 mg/kg/day): −0.4%
- pQCT femur (diaphysis) Cortical BMC, percent difference from Vehicle Control (10 mg/kg/day): −0.8%
- pQCT femur (diaphysis) Cortical BMD, percent difference from Vehicle Control (10 mg/kg/day): −0.4%
- pQCT femur (diaphysis) Cortical Thickness, percent difference from Vehicle Control (10 mg/kg/day): 0.15%
- pQCT femur (diaphysis) Endosteal Circumference, percent difference from Vehicle Control (10 mg/kg/day): −0.7%
- pQCT femur (diaphysis) Periosteal Circumference, percent difference from Vehicle Control (10 mg/kg/day): −1.2%
- pQCT femur (diaphysis) Total Area, percent difference from Vehicle Control (10 mg/kg/day): −0.9%
- pQCT femur (diaphysis) Total BMC, percent difference from Vehicle Control (10 mg/kg/day): 0.2%
- pQCT femur (diaphysis) Total BMD, percent difference from Vehicle Control (10 mg/kg/day): 1.1%
- pQCT femur Length, percent difference from Vehicle Control (10 mg/kg/day): −3.8%
- pQCT femur metaphysis C/SC BMC, percent difference from Vehicle Control (10 mg/kg/day): 10.7%
- pQCT femur metaphysis C/SC BMD, percent difference from Vehicle Control (10 mg/kg/day): 6.8%
- pQCT femur metaphysis Total Area, percent difference from Vehicle Control (10 mg/kg/day): 3.7%
- pQCT femur metaphysis Total BMC, percent difference from Vehicle Control (10 mg/kg/day): 16.7%
- pQCT femur metaphysis Total BMD, percent difference from Vehicle Control (10 mg/kg/day): 12.6%
- pQCT femur metaphysis Trabecular BMC, percent difference from Vehicle Control (10 mg/kg/day): 41.4%
- pQCT femur metaphysis Trabecular BMD, percent difference from Vehicle Control (10 mg/kg/day): 36.4%
- pQCT femur (diaphysis) CSMI (10 mg/kg/day): 3.8 mm^4
- pQCT femur (diaphysis) Cortical Area (10 mg/kg/day): 4.7 mm^2
- pQCT femur (diaphysis) Cortical BMC (10 mg/kg/day): 5.6 mg/mm
- pQCT femur (diaphysis) Cortical BMD (10 mg/kg/day): 1182.8 mg/cm^3
- pQCT femur (diaphysis) Cortical Thickness (10 mg/kg/day): 0.54 mm
- pQCT femur (diaphysis) Endosteal Circumference (10 mg/kg/day): 6.9 mm
- pQCT femur (diaphysis) Periosteal Circumference (10 mg/kg/day): 10.2 mm
- pQCT femur (diaphysis) Total Area (10 mg/kg/day): 8.6 mm^2
- pQCT femur (diaphysis) Total BMC (10 mg/kg/day): 6.2 mg/mm
- pQCT femur (diaphysis) Total BMD (10 mg/kg/day): 721.8 mg/cm^3
- pQCT femur Length (10 mg/kg/day): 31.9 mm
- pQCT femur metaphysis C/SC (Cortical/Subcortical) BMC (10 mg/kg/day): 7.9 mg/mm
- pQCT femur metaphysis C/SC (Cortical/Subcortical) BMD (10 mg/kg/day): 877.1 mg/cm^3
- pQCT femur metaphysis Total Area (10 mg/kg/day): 15.0 mm^2
- pQCT femur metaphysis Total BMC (10 mg/kg/day): 10.3 mg/mm
- pQCT femur metaphysis Total BMD (10 mg/kg/day): 690.2 mg/cm^3
- pQCT femur metaphysis Trabecular BMC (10 mg/kg/day): 2.5 mg/mm
- pQCT femur metaphysis Trabecular BMD (10 mg/kg/day): 410.7 mg/cm^3
- pQCT femur (diaphysis) CSMI, percent difference from Vehicle Control (50 mg/kg/day): 0.6%
- pQCT femur (diaphysis) Cortical Area, percent difference from Vehicle Control (50 mg/kg/day): −0.6%
- pQCT femur (diaphysis) Cortical BMC, percent difference from Vehicle Control (50 mg/kg/day): −0.7%
- pQCT femur (diaphysis) Cortical BMD, percent difference from Vehicle Control (50 mg/kg/day): −0.1%
- pQCT femur (diaphysis) Cortical Thickness, percent difference from Vehicle Control (50 mg/kg/day): −0.01%
- pQCT femur (diaphysis) Endosteal Circumference, percent difference from Vehicle Control (50 mg/kg/day): −0.7%
- pQCT femur (diaphysis) Periosteal Circumference, percent difference from Vehicle Control (50 mg/kg/day): −0.3%
- pQCT femur (diaphysis) Total Area, percent difference from Vehicle Control (50 mg/kg/day): −0.7%
- pQCT femur (diaphysis) Total BMC, percent difference from Vehicle Control (50 mg/kg/day): 0.0%
- pQCT femur (diaphysis) Total BMD, percent difference from Vehicle Control (50 mg/kg/day): 0.9%
- pQCT femur Length, percent difference from Vehicle Control (50 mg/kg/day): −4.9%
- pQCT femur metaphysis C/SC BMC, percent difference from Vehicle Control (50 mg/kg/day): 18.4%
- pQCT femur metaphysis C/SC BMD, percent difference from Vehicle Control (50 mg/kg/day): 13.6%
- pQCT femur metaphysis Total Area, percent difference from Vehicle Control (50 mg/kg/day): 4.3%
- pQCT femur metaphysis Total BMC, percent difference from Vehicle Control (50 mg/kg/day): 33.0%
- pQCT femur metaphysis Total BMD, percent difference from Vehicle Control (50 mg/kg/day): 27.6%
- pQCT femur metaphysis Trabecular BMC, percent difference from Vehicle Control (50 mg/kg/day): 92.0%
- pQCT femur metaphysis Trabecular BMD, percent difference from Vehicle Control (50 mg/kg/day): 84.7%
- pQCT femur (diaphysis) CSMI (50 mg/kg/day): 3.9 mm^4
- pQCT femur (diaphysis) Cortical Area (50 mg/kg/day): 4.7 mm^2
- pQCT femur (diaphysis) Cortical BMC (50 mg/kg/day): 5.6 mg/mm
- pQCT femur (diaphysis) Cortical BMD (50 mg/kg/day): 1186.1 mg/cm^3
- pQCT femur (diaphysis) Cortical Thickness (50 mg/kg/day): 0.54 mm
- pQCT femur (diaphysis) Endosteal Circumference (50 mg/kg/day): 7.0 mm
- pQCT femur (diaphysis) Periosteal Circumference (50 mg/kg/day): 10.2 mm
- pQCT femur (diaphysis) Total Area (50 mg/kg/day): 8.6 mm^2
- pQCT femur (diaphysis) Total BMC (50 mg/kg/day): 6.2 mg/mm
- pQCT femur (diaphysis) Total BMD (50 mg/kg/day): 720.6 mg/cm^3
- pQCT femur Length (50 mg/kg/day): 31.6 mm
- pQCT femur metaphysis C/SC (Cortical/Subcortical) BMC (50 mg/kg/day): 8.4 mg/mm
- pQCT femur metaphysis C/SC (Cortical/Subcortical) BMD (50 mg/kg/day): 932.6 mg/cm^3
- pQCT femur metaphysis Total Area (50 mg/kg/day): 15.1 mm^2
- pQCT femur metaphysis Total BMC (50 mg/kg/day): 11.8 mg/mm
- pQCT femur metaphysis Total BMD (50 mg/kg/day): 782.0 mg/cm^3
- pQCT femur metaphysis Trabecular BMC (50 mg/kg/day): 3.4 mg/mm
- pQCT femur metaphysis Trabecular BMD (50 mg/kg/day): 556.0 mg/cm^3
